Results on 29 compounds are retold here after patent publication US11932634B2 (Gilead Sciences, Inc., priority 2021, dated 2024).

Assay [1] relates to Jurkat NFκB-luciferase cells. In words: Jurkat NFκB-Luciferase Assay.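 Also: bioluminescence read-out normalized to DMSO basal activation and to maximum enhancement at 1 µM compound, rising signal indicating stronger T-cell activation through DGKα inhibition.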 The class given is cell-based. To be noted: Homo sapiens; Jurkat NFκB-luciferase cells activated with anti-CD3 antibody (OKT3), 2.5 hrs at 37° C., One-Glo Ex; geometric mean; read-out: DGK NFKb Luciferase EC50.
Description: The activity of compounds was tested in a cell based NFκB reporter assay. Jurkat cells that are stably expressing a luciferase reporter construct under the transcriptional control of a NFκB reporter element were activated with an anti-CD3 antibody and luciferase levels were measured with a bioluminescence readout.
The day after, the excess antibody was washed out five times with 100 ul/well of assay medium (RPMI supplemented with 10% fetal bovine serum) using a Biotek EL406 instrument and leaving 20 µl of residual volume in each well. Jurkat NFκB-luciferase cells (Promega #) were harvested and diluted to 1 million cells/ml in assay medium. Sixty nanoliters of test compound dissolved in DMSO at various concentrations were dispensed into 384-well v-bottom polypropylene plates (Greiner) using a Labcyte Echo instrument. Thirty microliters of medium containing the Jurkat NFκB-luciferase cells were then dispensed using a Biotek MicroFlo instrument in each well of the compound-containing plate. The medium/cell/compound mixture was mixed with a Bravo instrument and 20 ul/well of the mixture was transferred to the anti-CD3-coated plate. The assay mixture was then incubated for 2.5 hrs at 37° C. followed by equilibration at 25° C. for 30 min. Forty microliters of One-Glo Ex (Promega) was then added to the assay mixture and luciferase activity was read on a Envision plate reader 7 minutes later.
Bioluminescence data were normalized based on maximum enhancement (1 micromolar of compound) and on basal activation (DMSO) controls. Least squares curve fittings were performed using a four-parameter variable slope nonlinear regression model. […] EC50 values from multiple experiments were averaged by geometric mean and the standard deviation was calculated.
The target of a further assay is T1, human DGKα (Homo sapiens, UniProt P23743).
T1 construct: purchased Carna Biosciences'; inferred from the same paragraph's 'obtained from Carna Biosciences')
T1 sequence (P23743 whole entry): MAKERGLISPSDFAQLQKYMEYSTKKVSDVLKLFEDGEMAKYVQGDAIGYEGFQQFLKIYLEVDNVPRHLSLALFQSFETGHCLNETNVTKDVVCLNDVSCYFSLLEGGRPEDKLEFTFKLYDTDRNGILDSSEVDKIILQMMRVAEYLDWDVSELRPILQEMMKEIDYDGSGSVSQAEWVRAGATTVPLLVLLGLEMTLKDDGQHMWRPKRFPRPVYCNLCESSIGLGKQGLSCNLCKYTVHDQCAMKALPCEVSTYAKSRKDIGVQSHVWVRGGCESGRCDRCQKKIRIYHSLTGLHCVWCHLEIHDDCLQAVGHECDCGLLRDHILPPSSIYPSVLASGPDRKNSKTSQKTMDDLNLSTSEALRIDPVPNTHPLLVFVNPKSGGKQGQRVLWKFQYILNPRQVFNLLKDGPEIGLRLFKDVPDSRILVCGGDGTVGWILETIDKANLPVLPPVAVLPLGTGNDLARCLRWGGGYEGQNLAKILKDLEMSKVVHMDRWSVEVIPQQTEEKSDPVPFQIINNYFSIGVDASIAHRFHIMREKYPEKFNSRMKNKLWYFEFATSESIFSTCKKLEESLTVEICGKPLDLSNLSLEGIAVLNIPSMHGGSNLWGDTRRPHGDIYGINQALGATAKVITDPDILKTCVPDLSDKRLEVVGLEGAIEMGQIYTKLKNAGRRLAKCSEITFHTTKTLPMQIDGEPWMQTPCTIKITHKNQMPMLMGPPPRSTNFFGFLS
In words: DGKα Biochemical Activity Assay (ADP-Glo).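 Also: recombinant enzyme converting diacylglycerol in lipid micelles with ATP, ADP formed detected by luminescence, IC50 from a four-parameter nonlinear fit, geometric mean across experiments.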 For orientation: ADP-Glo first removes unused ATP, then detects ADP through luciferase.

Excerpt for human DGKα: Alternatively, the enzymatic activity of human DGKα was monitored in a biochemical assay in the presence or absence of compounds and using micelles containing 18:1 Diacylglycerol (DAG), 16:0-18:1 PS (POPS) and Octylglucoside as substrate. DGKα activity led to conversion of DAG and ATP to Phosphatidic Acid (PA) and ADP. Levels of ADP were monitored by bioluminescence using the ADP-Glo Kinase Assay (Promega) and were indicative of DGKα activity.
Ten nanoliters of test compound dissolved in DMSO at various concentrations were dispensed into a 384-well low volume nonbinding service white plates (Corning #3824) using a Labcyte Echo instrument. Recombinant DGKα Biosciences) in assay buffer (5 μL in 50 mM MOPS [3-(N-morpholino) propanesulfonic acid], pH 7.2; 0.0025% Triton X-100; 1 mM dithiothreitol; 5 mM MgCl2, 200 μM ATP) was added to the compound-containing plate and was incubated for 15 minutes at 25° C. A substrate solution (5 μL in 1.7 mM 1,2-dioleoyl-sn-glycerol [18:1 DAG], 13.5 mM 1-palmitoyl-2-oleoyl-sn-glycero-3-phospho-L-serine [16:0-18:1 PS](POPS), 2 μM CaCl2), 100 mM Octylglucoside (OG), 1 mM DTT) (obtained from Carna Biosciences) diluted in DGK ALPHA assay buffer was then added to start the reaction. Final concentrations were 1 nM DGKα, 100 μM ATP, 1 μM calcium chloride, 0.85 mM 1,2-dioleoyl-sn-glycerol (18:1 DAG), 6.75 mM 1-palmitoyl-2-oleoyl-sn-glycero-3-phospho-L-serine (16:0-18:1 PS) (POPS), 1 μM CaCl2), 50 mM Octylglucoside (OG) and 5 mM MgCl2. The reaction mixture was incubated at 25° C. for 1 hour. ADP-Glo Reagent (10 μL, 10 mM Mg added) provided by the kit was added to each well and incubated at 25° C. for 40 minutes. Then, 20 μL of Kinase Detection Reagent was added and incubated at 25° C. for 40 minutes. Luciferase activity of each well was measured via luminescence on an Envision plate reader (PerkinElmer).
Least squares curve fittings were performed using a four-parameter variable slope nonlinear regression model. […] IC50 values from multiple experiments were averaged by geometric mean and the standard deviation was calculated.

Broadly, the EC50 is the midpoint of the concentration-response curve. In general, IC50 refers to the concentration that inhibits the measured activity by half. A higher IC50 goes with weaker potency in that assay. On to `[2H]C([2H])([2H])n1c(=O)nc(N(CC(F)F)c2ccnc(C#CC3(C(F)F)CC3)c2F)c2c(F)cccc21` [Example 129, 4-[2,2-difluoroethyl-[2-[2-[1-(difluoromethyl)cyclopropyl]ethynyl]-3-fluoro-4-pyridyl]amino]-5-fluoro-1-(trideuteriomethyl)quinazolin-2-one], for which, in assay [1], the concentration for a half-maximal effect (EC50) was 4.26 nM. On human DGKα, this compound displayed an IC50 of 2.82 nM.

`[2H]C([2H])([2H])n1c(=O)nc(N2CCCc3c(C#CC(C)(C)O)cccc32)c2c(Cl)cccc21` [Example 130, 5-chloro-4-[5-(3-hydroxy-3-methyl-but-1-ynyl)-3,4-dihydro-2H-quinolin-1-yl]-1-(trideuteriomethyl)quinazolin-2-one]: the half-maximal effective concentration (EC50) in assay [1] was found to be 16.8 nM. Also, on human DGKα, the IC50 was found to be 5.49 nM.

Regarding `CC(C)(C#Cc1nccc2c1CCCN2c1nc(=O)[nH]c2cccc(F)c12)C(F)(F)F` [Example 131, 5-fluoro-4-[5-(4,4,4-trifluoro-3,3-dimethyl-but-1-ynyl)-3,4-dihydro-2H-1,6-naphthyridin-1-yl]-1H-quinazolin-2-one], the EC50 in assay [1] was 11.1 nM. The same compound displayed an IC50 against human DGKα of 43.7 nM.

For the compound `CC(F)(F)C1(C#Cc2nccc3c2CCCN3c2nc(=O)[nH]c3cccc(F)c23)CC1` [Example 132, 4-[5-[2-[1-(1,1-difluoroethyl)cyclopropyl]ethynyl]-3,4-dihydro-2H-1,6-naphthyridin-1-yl]-5-fluoro-1H-quinazolin-2-one], in assay [1], the EC50 is 9.96 nM. The compound also yielded a half-inhibitory concentration (IC50) against human DGKα of 66.1 nM.

Regarding `CC(C)(C#Cc1nccc2c1CCCN2c1nc(=O)[nH]c2ccc(F)c(F)c12)C(F)(F)F` [Example 133, 5,6-difluoro-4-[5-(4,4,4-trifluoro-3,3-dimethyl-but-1-ynyl)-3,4-dihydro-2H-1,6-naphthyridin-1-yl]-1H-quinazolin-2-one], the 50% effective concentration (EC50) in assay [1] came to 4.47 nM. This compound also displayed an IC50 at human DGKα of 23.2 nM.

Regarding `CC(F)(F)C1(C#Cc2nccc3c2CCCN3c2nc(=O)[nH]c3ccc(F)c(F)c23)CC1` [Example 134, 4-[5-[2-[1-(1,1-difluoroethyl)cyclopropyl]ethynyl]-3,4-dihydro-2H-1,6-naphthyridin-1-yl]-5,6-difluoro-1H-quinazolin-2-one], in assay [1], the EC50 was determined as 2.52 nM. This compound also had a 50% inhibitory concentration (IC50) at human DGKα of 14.4 nM.

Turning to `[2H]C([2H])([2H])n1c(=O)nc(N(CC(F)F)c2ccnc(C#CC3(C(F)(F)F)CC3)c2)c2c(F)cccc21` [Example 135, 4-[2,2-difluoroethyl-[2-[2-[1-(trifluoromethyl)cyclopropyl]ethynyl]-4-pyridyl]amino]-5-fluoro-1-(trideuteriomethyl)quinazolin-2-one], the concentration giving a half-maximal response (EC50) in assay [1] was 2.23 nM. Also, inhibition at human DGKα was half-maximal at 10.6 nM (IC50).

Take `[2H]C([2H])([2H])n1c(=O)nc(N(CC(F)F)c2ccnc(C#Cc3cncn3C)c2)c2c(F)cccc21` [Example 136, 4-[2,2-difluoroethyl-[2-[2-(3-methylimidazol-4-yl)ethynyl]-4-pyridyl]amino]-5-fluoro-1-(trideuteriomethyl)quinazolin-2-one]: the EC50 in assay [1] came to 84.4 nM. The compound further yielded an IC50 on human DGKα of 26.5 nM.

Regarding `[2H]C([2H])([2H])n1c(=O)nc(N(CC(F)F)c2ccnc(C#Cc3cnn(C)c3)c2)c2c(F)cccc21` [Example 137, 4-[2,2-difluoroethyl-[2-[2-(1-methylpyrazol-4-yl)ethynyl]-4-pyridyl]amino]-5-fluoro-1-(trideuteriomethyl)quinazolin-2-one], the EC50 in assay [1] turned out to be 24.2 nM. The compound also registered a half-maximal inhibitory concentration (IC50) against human DGKα of 10.2 nM.

Regarding `[2H]C([2H])([2H])n1c(=O)nc(N(CC(F)F)c2ccnc(C#CC3(C)CC3)c2)c2c(F)cccc21` [Example 138, 4-[2,2-difluoroethyl-[2-[2-(1-methylcyclopropyl)ethynyl]-4-pyridyl]amino]-5-fluoro-1-(trideuteriomethyl)quinazolin-2-one], the EC50 in assay [1] was 4.59 nM. For the same compound, on human DGKα, the IC50 was 6.83 nM.

Turning to `[2H]C([2H])([2H])n1c(=O)nc(N(CC(F)F)c2ccnc(C#CC(C)(C)C#N)c2)c2c(F)cccc21` [Example 139, 4-[4-[2,2-difluoroethyl-[5-fluoro-2-oxo-1-(trideuteriomethyl)quinazolin-4-yl]amino]-2-pyridyl]-2,2-dimethyl-but-3-ynenitrile], the concentration giving a half-maximal response (EC50) in assay [1] stood at 15.5 nM. Moreover, inhibition against human DGKα was half-maximal at 18.3 nM (IC50).

Consider `[2H]C([2H])([2H])n1c(=O)nc(N2CCCc3c2ccnc3C#CC(C)(C)C#N)c2c(F)c(F)ccc21` [Example 140, 4-[1-[5,6-difluoro-2-oxo-1-(trideuteriomethyl)quinazolin-4-yl]-3,4-dihydro-2H-1,6-naphthyridin-5-yl]-2,2-dimethyl-but-3-ynenitrile], for which the EC50 in assay [1] was found to be 7.54 nM. Further, the IC50 at human DGKα turned out to be 15.3 nM.

For the compound `[2H]C([2H])([2H])n1c(=O)nc(N2CCCc3c2ccnc3C#CC2(C(F)(F)F)CC2)c2c(F)c(F)ccc21` [Example 141, 5,6-difluoro-1-(trideuteriomethyl)-4-[5-[2-[1-(trifluoromethyl)cyclopropyl]ethynyl]-3,4-dihydro-2H-1,6-naphthyridin-1-yl]quinazolin-2-one], in assay [1], the EC50 came out at 2.37 nM. This compound also gave an IC50 on human DGKα of 6.28 nM.

For `[2H]C([2H])([2H])n1c(=O)nc(N2CCCc3c2ccnc3C#CC2(C(F)(F)F)CC2)c2c(F)cccc21` [Example 142, 5-fluoro-1-(trideuteriomethyl)-4-[5-[2-[1-(trifluoromethyl)cyclopropyl]ethynyl]-3,4-dihydro-2H-1,6-naphthyridin-1-yl]quinazolin-2-one], in assay [1], the 50% effective concentration (EC50) worked out at 8.25 nM. The IC50 against human DGKα was 8.91 nM.

For the compound `CC(C)(C#N)C#Cc1cccc2c1CCCCN2c1nc(=O)[nH]c2cccc(F)c12` [Example 143, 4-[1-(5-fluoro-2-oxo-1H-quinazolin-4-yl)-2,3,4,5-tetrahydro-1-benzazepin-6-yl]-2,2-dimethyl-but-3-ynenitrile], the half-maximal effective concentration (EC50) in assay [1] turned out to be 1.75 nM. It took 18.4 nM to reach half-maximal inhibition against human DGKα (IC50).

In the case of `O=c1nc(N2CCOCc3c(C#CC4(C(F)(F)F)CC4)cccc32)c2c(F)ccc(F)c2[nH]1` [Example 144], the concentration giving a half-maximal response (EC50) in assay [1] amounted to 5.34 nM. For the same compound, half-maximal inhibition against human DGKα (IC50) required 21.8 nM.

For the compound `CC1(C#Cc2cccc3c2COCCN3c2nc(=O)[nH]c3c(F)ccc(F)c23)CC1` [Example 145], the EC50 in assay [1] was 3.19 nM. The compound also showed an IC50 on human DGKα of 13 nM.

On to `O=c1nc(N2CCOCc3c(C#CC4CC4)cccc32)c2c(F)ccc(F)c2[nH]1` [Example 146], for which the EC50 in assay [1] is 4.69 nM. At human DGKα, this compound displayed a half-maximal inhibitory concentration (IC50) of 9.59 nM.

Consider `CC(F)(F)C1(C#Cc2cccc3c2COCCN3c2nc(=O)[nH]c3c(F)ccc(F)c23)CC1` [Example 147], for which the 50% effective concentration (EC50) in assay [1] is 2.84 nM. The same compound gave an IC50 against human DGKα of 51.9 nM.

For `O=c1nc(N2CCCCc3c(Br)cncc32)c2c(F)c(F)ccc2[nH]1` [Example 148, 4-(6-bromo-2,3,4,5-tetrahydro-1H-pyrido[3,4-b]azepin-1-yl)-5,6-difluoroquinazolin-2(1H)-one], the EC50 in assay [1] is 2.77 nM. On human DGKα, half-maximal inhibition (IC50) required 44.1 nM.

Regarding `O=c1nc(N2CCCCc3c(Br)cncc32)c2c(F)cccc2[nH]1` [Example 149, 4-(6-bromo-2,3,4,5-tetrahydro-1H-pyrido[3,4-b]azepin-1-yl)-5-fluoroquinazolin-2(1H)-one], the EC50 in assay [1] stood at 34.1 nM. Also, the IC50 on human DGKα is 150 nM.

`CC1(C#Cc2cncc3c2CCCCN3c2nc(=O)[nH]c3ccc(F)c(F)c23)CC1` [Example 150, 5,6-difluoro-4-(6-((1-methylcyclopropyl)ethynyl)-2,3,4,5-tetrahydro-1H-pyrido[3,4-b]azepin-1-yl)quinazolin-2(1H)-one]: the EC50 in assay [1] turned out to be 0.826 nM. The compound also had a 50% inhibitory concentration (IC50) against human DGKα of 11.2 nM.

In the case of `O=c1nc(N2CCCCc3c(C#CC4(C(F)(F)F)CC4)cncc32)c2c(F)c(F)ccc2[nH]1` [Example 151, 5,6-difluoro-4-(6-((1-(trifluoromethyl)cyclopropyl)ethynyl)-2,3,4,5-tetrahydro-1H-pyrido[3,4-b]azepin-1-yl)quinazolin-2(1H)-one], the EC50 in assay [1] was 0.954 nM. This compound yielded an IC50 against human DGKα of 18 nM.

As to `CC1(C#Cc2cncc3c2CCCCN3c2nc(=O)[nH]c3cccc(F)c23)CC1` [Example 152, 5-fluoro-4-(6-((1-methylcyclopropyl)ethynyl)-2,3,4,5-tetrahydro-1H-pyrido[3,4-b]azepin-1-yl)quinazolin-2(1H)-one], in assay [1], the half-maximal effective concentration (EC50) amounted to 0.679 nM. Further, the half-maximal inhibitory concentration (IC50) on human DGKα is 16.2 nM.

For `CC(C)(O)C#Cc1cccc2c1COCCN2c1nc(=O)[nH]c2c(F)ccc(F)c12` [Example 155], the EC50 in assay [1] was 53.8 nM. On human DGKα, this compound had an IC50 of 16.2 nM.

As for `O=c1nc(N2CCCCc3c(C#CC4(C(F)(F)F)CC4)cccc32)c2c(F)cccc2[nH]1` [Example 156, 5-fluoro-4-(6-((1-(trifluoromethyl)cyclopropyl)ethynyl)-2,3,4,5-tetrahydro-1H-benzo[b]azepin-1-yl)quinazolin-2(1H)-one], the EC50 in assay [1] stood at 0.308 nM. On human DGKα, this compound yielded an IC50 of 22.6 nM.

As for `CC1(C#Cc2cccc3c2CCCCN3c2nc(=O)[nH]c3cccc(F)c23)CC1` [Example 157, 5-fluoro-4-(6-((1-methylcyclopropyl)ethynyl)-2,3,4,5-tetrahydro-1H-benzo[b]azepin-1-yl)quinazolin-2(1H)-one], the concentration for a half-maximal effect (EC50) in assay [1] was determined as 0.58 nM. Inhibition against human DGKα was half-maximal at 26 nM (IC50).

On to `CC(C)(C#Cc1cccc2c1COCCN2c1nc(=O)[nH]c2cccc(F)c12)NC(=O)C1(C(F)(F)F)CC1` [Example 158, N-(4-(1-(5-fluoro-2-oxo-1,2-dihydroquinazolin-4-yl)-1,2,3,5-tetrahydrobenzo[e][1,4]oxazepin-6-yl)-2-methylbut-3-yn-2-yl)-1-(trifluoromethyl)cyclopropane-1-carboxamide], for which the 50% effective concentration (EC50) in assay [1] was determined as 11 nM. The compound also registered an IC50 against human DGKα of 9.31 nM.

Turning to `[2H]C([2H])([2H])n1c(=O)nc(N2CCCc3c(C#CC4(C)CC4)cncc32)c2c(F)c(F)ccc21` [Example 159, 5,6-difluoro-1-(methyl-d3)-4-(5-((1-methylcyclopropyl)ethynyl)-3,4-dihydro-1,7-naphthyridin-1(2H)-yl)quinazolin-2(1H)-one], in assay [1], the EC50 was found to be 0.685 nM. Further, it took 2.03 nM to reach half-maximal inhibition on human DGKα (IC50).
